Where a SMILES comes first, the peptide text is derived from it. The star is where a group is joined. Cbz = O=C(OCc1ccccc1)*
Columns and labels:
[1] = tested on: α1-ATZ mutant antitrypsin produced by human fibroblast cell line CJZ12B; experiment: Pulse-chase: disappearance of α1-ATZ from cell lysate and secretion into medium; format: cell-based; details: for molecular weight of intracellular and secreted protein / effect on amount of secreted α1-ATZ / effect on degradation / intracellular retention of α1-ATZ / fraction of α1-ATZ secreted: DMJ 1 mM, KIF 0.3 mM; for effect on amount of secreted α1-ATZ / effect on degradation / intracellular retention of α1-ATZ: DIM 1 mM, vs control; for fraction of α1-ATZ secreted: control 0.11; for disappearance of α1-ATZ from the cell lysate vs control / secretion of the 55 kD α1-ATZ into the medium: glucosidase inhibitors, pulse-chase in presence of drug
Procedure: (§1) The human fibroblast cell line CJZ12B which has been transduced with anthotropic recombinant retroviral particles to result in stable production of α1-ATZ mutant antitrypsin (Gross, V., et al., Biochem. J. (1986) supra) is used to produce α1-ATZ. The α1-ATZ mutant produced is labeled by adding 350-400 μCi TRAN^35S label to the medium.
The procedure of Example 1 was repeated except that after the incubation with label, the cells producing α1-ATZ were “chased” for various time intervals still in the presence of drug. At these time intervals, extracellular fluid and cell lysates were clarified, immunoprecipitated and analyzed by 8-10% SDS PAGE as previously described. (Wu, Y., et al., PNAS (1994) supra).
The pulse-chase experiments of Example 2 were repeated with the mannosidase inhibitors DMJ (1 mM) KIF (0.3 mM) and DIM (1 mM). In the presence of DMJ or KIF, the intracellular and secreted protein both have molecular weights of 52 kD. […] The half-life for disappearance of α1-ATZ from the lysate in the control is 0.95 hours and the fraction secreted is 0.11. […] (Control values were slightly different in this latter experiment.) There was no effect of DIM on degradation or secretion.

neutrophil elastase = experiment: Complex formation of secreted α1-ATZ with neutrophil elastase; format: cell-based; details: medium at 6 hours of chase, KIF (0.3 mM), DMJ (1 nM) or CST (100 μg/ml); for amount of elastase at which complexes start to form / amount of elastase for complete conversion to complexes: 30 minutes at 37°
Procedure: Both HepG2 cells, secreting wild type antitrypsin, and CJZ12B cells, which secrete the mutant, were subjected to pulse-chase conditions as described, for example, in Example 2. The mutant-secreting cells were treated with KIF (0.3 mM) DMJ (1 nM) or CST (100 μg/ml). The extracellular media from the 6 hours time point of the chase period were harvested and then incubated for 30 minutes at 37° with neutrophil elastase at various concentrations. The reaction mixtures were then immunoprecipitated with anti-antitrypsin and resolved by SDS PAGE.

[2] = tested on: α1-ATZ mutant antitrypsin produced by human fibroblast cell line CJZ12B; experiment: Electrophoretic mobility of immunoprecipitated α1-ATZ from drug-treated, 35S-labeled cells (SDS-PAGE); format: cell-based; details: for migration of α1-ATZ compared to the 52 kD trimmed form: mannosidase inhibitors, tested as in Example 1; for migration of precipitated α1-ATZ / estimated molecular weight of the protein from treated cultures: 100 μg/ml CST or 3 mM MDNJ; for migration of precipitated α1-ATZ: 1 hour preincubation, 1.5 hours label, vs control medium; for estimated molecular weight of the protein from treated cultures: untreated form 52 kD
From the text: as §1
It has previously been shown that α1-ATZ mutant migrates at 52 kD in electrophoretic studies. It is believed this form is an intermediate with high mannose-type oligosaccharide side chains (Wu, Y., et al., PNAS (1994) supra). The α1-ATZ producing cell line of Preparation A was incubated for 1 hour in control serum-free medium or in serum-free medium supplemented with 100 μg/ml CST or 3 mM MDNJ. The cells were then labeled with TRAN^35S for 1.5 hours maintaining the presence of the drugs. The antitrypsin fraction was immunoprecipitated from the cell lysates, resolved by 10% SDS-PAGE and detected with the Phosphorimager system. […] The estimated molecular weight of the protein from treated cultures is 55 kD.
The effect of the mannosidase inhibitors KIF (mannosidase I), DMJ (mannosidase I and II) and an additional inhibitor, DIM (mannosidase II) on electrophoretic mobility was tested as described in Example 1.

[3] = tested on: α1-ATZ complexes with calnexin and GRP78/BiP; experiment: Co-immunoprecipitation of α1-ATZ with chaperones from microsomes; format: biochemical
Procedure: The procedure was repeated with 100 μg/ml CST present throughout and the microsomes were homogenized under nondenaturing conditions and immunoprecipitated with antibodies to calnexin and to a different chaperone, GRP78/BiP. The 52 kD form in the control was precipitated by anti-calnexin but the complex disappears between 30-45 minutes of the chase period. […] On the other hand, the 55 kD protein characteristic of the sample which includes CST is precipitated by anti-GRP78/BiP. This complex, too, disappears rapidly.

[4] = tested on: α1-ATZ secreted by CJZ12B cells; experiment: endoH / PNGaseF digestion of α1-ATZ secreted by treated CJZ12B cells; format: cell-based, human; details: product of drug-treated CJZ12B cells
From the text: Wild type α1-AT is secreted from HepG2 cells with a molecular weight of 55 kD. It is resistant to digestion with endoH but is cleaved to a 46 kD polypeptide by PNGaseF.
EndoH is glycolytic only for high mannose […] carbohydrate glycosylation chains; PNGaseF cleaves any carbohydrate and would be expected to degrade the glycosylation side chains of any glycoprotein.
This 55 kD α1-ATZ polypeptide was cleaved to 46 kD by PNGaseF.
The peptide secreted by KIF treated CJZ12B cells was cleaved both by endoH and PNGaseF to a 46 kD product.

α1-ATZ = experiment: Cell-free ER degradation of α1-ATZ (reticulocyte lysate with canine pancreatic microsomes); format: biochemical
Procedure: This system was described by Qu, D., et al., J. Biol. Chem. (1996) 271:22791-22795 cited above. In general, reticulocyte lysate cell free system supplemented with canine pancreatic microsomes was programmed with purified α1-ATZ mRNA over 60 minutes at 30° C. The microsomes were then isolated by centrifugation and incubated in a proteolysis-primed lysate at 37° for various time intervals. Aliquots were taken and the samples resolved on 10% SDS-PAGE gels.
To test the effect of drug, the reaction mixture was pre-incubated for 10 minutes at 30° C. in the absence of CST or in the presence of 100 μg/ml CST. α1-ATZ mRNA and ^35S-labeled methionine were added and translation conducted for 60 minutes at 30° C. in the absence or presence of CST. After co-translational translocation of α1-ATZ into the microsomes, the microsomes were harvested by centrifugation and the pellets suspended in […] of proteolysis-primed lysate with or without CST. The samples were incubated at 37° C. and aliquots analyzed at various time intervals.

[5] = 100 μg/ml CST present throughout

SMILES | molecular weight of intracellular and secreted protein [1] [kD] | effect on amount of secreted α1-ATZ [1] | effect on degradation / intracellular retention of α1-ATZ [1] | fraction of α1-ATZ secreted [1] | molecular weight of α1-ATZ-elastase complexes (neutrophil elastase) [kD] | amount of elastase at which complexes start to form (neutrophil elastase) [µg] | amount of elastase for complete conversion to complexes (neutrophil elastase) [µg] | migration of α1-ATZ compared to the 52 kD trimmed form [2] | disappearance of α1-ATZ from the cell lysate vs control [1] | secretion of the 55 kD α1-ATZ into the medium [1] | molecular weight of product after PNGaseF cleavage [4] [kD] | molecular weight of product(s) after endoH treatment [4] | sensitivity of secreted α1-ATZ to endoH [4] | migration of precipitated α1-ATZ [2] | estimated molecular weight of the protein from treated cultures [2] [kD] | also measured
OC[C@H]1NC[C@@H](O)[C@@H](O)[C@@H]1O [DMJ, deoxymannojirimycin] | 52 | increase | retained intracellularly for a longer period of time | 0.28 | 70 | 0.5 | 2 | somewhat slower migration |  |  |  |  |  |  |  | 
O[C@H]1[C@H](O)[C@@H](O)CN2CC[C@H](O)[C@H]12 [CST, castanospermine] |  |  |  |  | 75 | 0.5 | 2 |  | same rate | increase | 46 | 46 kD, 48 kD, and 52 kD | partial sensitivity | migrates more slowly | 55 | precipitation of 55 kD α1-ATZ by anti-GRP78/BiP [3, 5]: precipitated; precipitation of α1-ATZ by anti-calnexin [3, 5]: Little if any precipitate; total α1-ATZ co-precipitated with the anti-GRP78/BiP antibody ([3]; CST present, estimated): 5-10%; newly synthesized 55 kD protein secreted into the medium ([1]; 100 μg/ml CST, by 6 hours of chase, untreated control 17%): 31%; time at which 55 kD protein disappears from the cell lysate ([1]; 100 μg/ml CST, chase): 2 to 4 h; time at which the 55 kD form begins to disappear (α1-ATZ; 100 μg/ml CST from pre-incubation on, 37° C., control 15-30 minutes): > 30 min; time at which disappearance is complete (α1-ATZ; 100 μg/ml CST from pre-incubation on, 37° C., control 30-45 minutes): 45 to 90 min; disappearance rate of the 52 kD form (α1-ATZ; CST added only during the chase period): same disappearance rate as the control
OC[C@@H](O)[C@@H]1NC[C@@H](O)[C@H]1O [DIM] |  | no effect | no effect |  |  |  |  |  |  |  |  |  |  |  |  | 
CN1C[C@H](O)[C@@H](O)[C@H](O)[C@H]1CO [MDNJ, N-methyldeoxynojirimycin] |  |  |  |  |  |  |  |  | accelerated over control | no secretion |  |  |  | migrates more slowly | 55 | 
O=C1N[C@@H]2[C@@H](O)[C@@H](O)[C@H](O)[C@@H](CO)N2C1=O [KIF, kifunensine] | 52 | increase | retained intracellularly for a longer period of time | 0.31 | 70 | 0.5 | 2 | somewhat slower migration |  |  | 46 | 46 kD | cleaved |  |  | 
CC(C)C[C@@H](C=O)NC(=O)[C@H](CC(C)C)NC(=O)[C@H](CC(C)C)NC(=O)OCc1ccccc1 [MG132] (Cbz-Leu-Leu-Leu-aldehyde) |  |  |  |  |  |  |  |  |  |  |  |  |  |  |  | effect on alternate degradation pathway of untrimmed α1-ATZ (α1-ATZ; CST present): inhibited

— patent publication US6656912B2, “Methods to treat α1-antitrypsin deficiency” (Washington University in St. Louis, priority 2000, dated 2003)
